Reference: US20100087458A1, “METHOD OF TREATING MELANOMA” (Myriad Pharmaceuticals, Inc., priority 2007, published 2010)
Entries after “also recorded” stand apart in the source; their conditions may differ. Counter-ions that a name gives are not always drawn.

Tested on: Subjects with refractory solid tumors
Assay: Phase I clinical trial, open-label, dose-escalating, multiple-dose, weekly intravenous administration (safety, tolerability)
Format: in vivo
Details: human subjects
Description: An open-label, dose-escalating, multiple-dose study to define the safety, tolerability and phamacokinetics of weekly intravenous administration of (4-Methoxy-phenyl)-methyl-(2-methyl-quinazolin-4-yl)-amine hydrochloride was performed. A dosing schedule (each 4 week cycle) was performed for (4-Methoxy-phenyl)-methyl-(2-methyl-quinazolin-4-yl)-amine hydrochloride weekly for 3 weeks with no infusion on the fourth week of each cycle. Subjects with refractory solid tumors were enrolled in cohorts of 3. During Cycle 1, subjects were hospitalized during each infusion of (4-Methoxy-phenyl)-methyl-(2-methyl-quinazolin-4-yl)-amine hydrochloride and remained for observation and safety evaluation for approximately 24 hours following the end of the infusion. All subject had continuous telemetry for 2 hours prior to infusion, for 1-2 hour infusion and for 3 hours after the end of the infusion. Any clinically significant electrocardiographic (ECG) wave form abnormality was recorded and prolongation of the monitoring period extended at the discretion of the principal investigator.
Electrocardiograms were obtained prior to starting the infusion and within 30 minutes of the end of infusion for each infusion of the first cycle. Electrocardiograms on Day 1 were obtained in triplicate 5 minutes apart.
Neurocognitive assessments were made by administration of the Mini-Mental State Examination (MMSE), the Hopkins Verbal Learning and timed Grooved Pegboard tests before administration of the intravenous infusion and approximately 24 hours of the infusion at each weekly administration of the first cycle.
On days 1, 8, and 15 of each cycle, vital signs were obtained prior to the first dose, at 15, 30, and 60 minutes after the initiation of the infusion, and at 0.5, 1, 1.5, 2, and 4 hours after the end of the intravenous infusion. Vital signs at all time points beyond the start of the intravenous infusion included heart rate, blood pressure and respirations. Temperature was measured at the end of the infusion and 4 hours later.
Individual subjects were allowed to continue on repeated weekly ×3 administrations every 28 days with no dose increase provided there was no unacceptable toxicity or disease progression.
Tumor response was evaluated by response evaluation criteria in solid tumors (RECIST) criteria. To prevent sever hypersensitivity reactions due to Cremophor® EL, subjects were premedicated with oral dexamethasone (20 mg) administered approximately 12 and 6 hours before the intravenous infusion with (4-Methoxy-phenyl)-methyl-(2-methyl-quinazolin-4-yl)-amine hydrochloride, diphenhydramine (50 mg) or its equivalent administered intravenously 30-60 minutes before (4-Methoxy-phenyl)-methyl-(2-methyl-quinazolin-4-yl)-amine hydrochloride, and cimetidine (300 mg) or ranitidine (50 mg) administered intravenously 30-60 minutes before (4-Methoxy-phenyl)-methyl-(2-methyl-quinazolin-4-yl)-amine hydrochloride.

[1] = weekly i.v. infusion for 3 of 4 weeks, 0.3-3.3 mg/m^2
[2] = weekly i.v. infusion, 0.3-3.3 mg/m^2

SMILES: COc1ccc(N(C)c2nc(C)nc3ccccc23)cc1 [(4-Methoxy-phenyl)-methyl-(2-methyl-quinazolin-4-yl)-amine hydrochloride]
- effects on cardiac conduction (PR, QRS or QTc) (ECG before and within 30 minutes of end of infusion, 0.3-3.3 mg/m^2): no significant effects on cardiac conduction
- overall safety and tolerability (weekly i.v. administration, various dosages, hydrochloride): safe and well tolerated in human subjects at various dosages; also recorded: safe and tolerable
- dose limiting toxicity [1]: vascular in nature, manifested by an acute coronary syndrome
- intratumor bleeding [1]: incidences of intratumor bleeding
- peripheral cytotoxicity [1]: no evidence of cytotoxity peripherally at the administered doses
- bradycardia [2]: occasional episodes of bradycardia
- systolic blood pressure [2]: dose-related increase in systolic blood pressure
